According to publication PMC10916382, “Repurposing screen identifies novel candidates for broad-spectrum coronavirus antivirals and druggable host targets” (Antimicrobial Agents and Chemotherapy, 2024):
pIC50: −log10 of the molar value. Counter-ions that a name gives are not always drawn. Like-named read-outs stand apart in the source and are kept apart here.

Tests used:
SARS-CoV-2 [1] = conditions: cited from earlier work
HCoV-229E [2] = experiment: microbe, parasite or virus in culture; type: cell-based, Homo sapiens sapiens; conditions: for IC50: Huh7.5, read-out: IC50 (µM), HCoV 229E
SARS-CoV-2 [3] = experiment: microbe, parasite or virus in culture; conditions: Severe acute respiratory syndrome coronavirus 2, Calu-3, 48 h
SARS-CoV-2 [4] = conditions: for outcome against confirmation criteria of the SARS-CoV-2 counter-screen (<50% infected cell, >75% total cells): single dose of 5 µM
SARS-CoV-2 [5] = type: cell-based; conditions: dose range 0.15 µM to 10 µM, viral genome copies in apical washes and cellular lysates
SARS-CoV-2 [6] = conditions: for SI (CC50/IC50): CC50 from LDH assay / IC50 from qRT-PCR
HCoV-229E [7] = experiment: Twelve-step dose titration against HCoV-229E infection on Huh-7.5/F-Luc/Cas9 cells; type: cell-based, Homo sapiens sapiens; conditions: Human coronavirus 229E, Huh7.5, twelve-step 1:3 dilutions, n = 3
[8] = tested on: primary human airway epithelial cells; conditions: dose range 0.15 µM to 10 µM, cellular lysates
in vitro [9] = experiment: in vitro
in vitro [10] = conditions: human
[11] = Human coronavirus 229E, Huh7.5, 48 h, read-out: IC50 against HCoV-229E
[12] = Calu-3 cells, immunofluorescence imaging
[13] = Huh-7.5 cells, dose series, maximum tested dose 5 µM
[14] = Calu-3 cells, screening dose 5 µM, 48 hours post-inoculation
[15] = Anti-SARS-CoV-2 screening on Calu-3 cells: viability [% of control], Calu-3 cells
[16] = Huh-7.5/F-Luc cells, maximum tested dose 5 µM

With `COc1ccc2[nH]c([S+]([O-])Cc3ncc(C)c(OC)c3C)nc2c1` (centres unmarked) [OMP, omeprazole] as the compound, how does the “inhibition of SARS-CoV-2 infection” value (SARS-CoV-2 [1]; Vero cells) read?
The value was “inhibited SARS-CoV-2 infection of Vero cells”.

With `CCC(CC)COC(=O)[C@H](C)N[P@](=O)(OC[C@H]1O[C@@](C#N)(c2ccc3c(N)ncnn23)[C@H](O)[C@@H]1O)Oc1ccccc1` [Remdesivir] as the compound, how does the pIC50 (HCoV-229E [2]; Human coronavirus 229E, Huh7.5) read?
The pIC50 was 7.70.

What about the pIC50 (HCoV-229E [2]; [11]) of the same compound?
Its pIC50 is 7.80.

And the pIC50 (SARS-CoV-2 [3])?
The pIC50 was 6.74.

What about the IC90 (SARS-CoV-2 [3]) of the same compound?
Its IC90 is 310 nM.

What about the “Anti-SARS-CoV-2 screening on Calu-3 cells: intracellular SARS-CoV-2 infection measured via immunofluorescence imaging [% of control]” value (SARS-CoV-2 [4]; [12]) of the same compound?
Its value is 1.09 % of control.

What about the “antiviral activity against SARS-CoV-2 in HAE cells” value (SARS-CoV-2 [5]) of the same compound?
Its value is “dose dependently inhibited SARS-CoV-2 infection”.

And the “SI (CC50/IC50)” value (SARS-CoV-2 [6]; Calu-3 cells)?
Its value is over 6.76.

What about the pIC50 (HCoV-229E [7]) of the same compound?
Its pIC50 is 9.08.

What about the “CC50 (µM)” value (Huh-7.5/F-Luc cells; [13]) of the same compound?
The value was “greater than maximum tested dose”.

What about the “cytotoxicity in HAE cells, GAPDH mRNA” value [8] of the same compound?
The value was “without reducing GAPDH mRNA levels”.

With `O=Cc1c2[nH]c3ccccc3c2cc2[nH]c3ccccc3c12` [FICZ, 6-formylindolo(3,2-b) carbazole] as the compound, how does the “inhibition of SARS-CoV-2 infection” value (SARS-CoV-2 [1]; Vero cells) read?
The value was “inhibited SARS-CoV-2 infection of Vero cells”.

Which “anti-SARS-CoV-2 effects” value (SARS-CoV-2 [1]) does the source give for `COC(=O)/C=C/C(=O)OC` [DMF, dimethyl fumarate] here?
The value was “anti-SARS-CoV-2 effects at high concentrations”.

Which results are given for `COCCN1CCN(Cc2ccc(-c3n[nH]c4c3C(=O)c3c(NC(=O)NN5CCOCC5)cccc3-4)cc2)CC1` [RGB-286638, reference compound]?
pIC50 (HCoV-229E [2]; Human coronavirus 229E, Huh7.5): 6.92; Anti-SARS-CoV-2 screening on Calu-3 cells: intracellular SARS-CoV-2 infection measured via immunofluorescence imaging [% of control] (SARS-CoV-2 [4]; [12]): 123.82 % of control; outcome against confirmation criteria of the SARS-CoV-2 counter-screen (<50% infected cell, >75% total cells) (SARS-CoV-2 [4]; Calu-3 cells): did not meet our stringent confirmation criteria; virus load in the culture fluid (SARS-CoV-2 [6]; [14]): reduced virus load; viability (in vitro [9]; [15]): 19%; CC50 (µM) (Huh-7.5/F-Luc cells; [13]): greater than maximum tested dose

For `CCc1cnn2c(NCc3ccc[n+]([O-])c3)cc(N3CCCC[C@H]3CCO)nc12` [Dinaciclib, reference compound], which “Anti-SARS-CoV-2 screening on Calu-3 cells: intracellular SARS-CoV-2 infection measured via immunofluorescence imaging [% of control]” value (SARS-CoV-2 [4]) is on record?
The value was 72.14 % of control.

What about the “outcome against confirmation criteria of the SARS-CoV-2 counter-screen (<50% infected cell, >75% total cells)” value (SARS-CoV-2 [4]; Calu-3 cells) of the same compound?
Its value is “did not meet our stringent confirmation criteria”.

And the “virus load in the culture fluid” value (SARS-CoV-2 [6]; [14])?
The value was “reduced virus load”.

What about the viability at 48 h, 5 µM (in vitro [9]) of the same compound?
Its viability at 48 h, 5 µM is 29.7%.

What about the “CC50 (µM)” value (Huh-7.5/F-Luc cells) of the same compound?
Its value is “greater than maximum tested dose”.

What about the “inhibition of SARS-CoV-2 infection” value (SARS-CoV-2 [1]; Vero E6 and A549/ACE2 cells) of the same compound?
Its value is “nanomolar efficacy”.

With `COc1cc(F)ccc1-c1cc(Nc2cc(CS(C)(=N)=O)ccn2)ncc1F` (single isomer, unassigned; (+)) [(+)-BAY-1251152, reference compound] as the compound, how does the pIC50 (HCoV-229E [2]; HCoV 229E infection, dose series, max. dose 5 µM, read-out: IC50) read?
The pIC50 was 6.89.

And the “Anti-SARS-CoV-2 screening on Calu-3 cells: viability [% of control]” value (SARS-CoV-2 [4]; Calu-3 cells)?
Its value is 100.11 % of control.

And the “Anti-SARS-CoV-2 screening on Calu-3 cells: intracellular SARS-CoV-2 infection measured via immunofluorescence imaging [% of control]” value (SARS-CoV-2 [4]; [12])?
Its value is 51.46 % of control.

And the “outcome against confirmation criteria of the SARS-CoV-2 counter-screen (<50% infected cell, >75% total cells)” value (SARS-CoV-2 [4]; Calu-3 cells)?
The value was “did not meet our stringent confirmation criteria”.

What about the “virus load in the culture fluid” value (SARS-CoV-2 [6]) of the same compound?
Its value is “reduced virus load”.

And the “CC50 (µM)” value (Huh-7.5/F-Luc cells; [13])?
Its value is “greater than maximum tested dose”.

What about the “% cell viability at max. dose [5 µM]” value (Huh-7.5/F-Luc cells; at max. dose 5 µM) of the same compound?
The value was 115.26%.

Which “anti-SARS-CoV-2 effects” value (SARS-CoV-2 [1]) does the source give for `C=C(CC(=O)OCCCCCCCC)C(=O)O` [4-OI, 4-octyl-itaconate] here?
The value was “anti-SARS-CoV-2 effects at high concentrations”.

Which results are given for `CC1(C)CC[C@]2(C(=O)O)CC[C@]3(C)[C@H](C(=O)C=C4[C@@]5(C)C=C(C#N)C(=O)C(C)(C)[C@@H]5CC[C@]43C)[C@@H]2C1` [Bardoxolone, reference compound]?
pIC50 (HCoV-229E [2]; Human coronavirus 229E, Huh7.5): 7.40; pIC50 (HCoV-229E [2]; [11]): 7.43; pIC50 (SARS-CoV-2 [3]): 5.72; IC90 (SARS-CoV-2 [3]): 7030 nM; Anti-SARS-CoV-2 screening on Calu-3 cells: intracellular SARS-CoV-2 infection measured via immunofluorescence imaging [% of control] (SARS-CoV-2 [4]; [12]): 95.03 % of control; outcome against confirmation criteria of the SARS-CoV-2 counter-screen (<50% infected cell, >75% total cells) (SARS-CoV-2 [4]; Calu-3 cells): did not meet the inclusion criteria; antiviral activity against SARS-CoV-2 in HAE cells (SARS-CoV-2 [5]): the reduction in viral genome copies could not be separated from an increase in cytotoxicity; SI (CC50/IC50) (SARS-CoV-2 [6]; Calu-3 cells): 3.90; viability at 48 h, 5 µM (in vitro [9]): 118%

For `OCCN1CCN(CCCN2c3ccccc3Sc3ccc(Cl)cc32)CC1` [RFM-000-391-8], which IC50 (HCoV-229E [2]; Human coronavirus 229E) is on record?
Its IC50 is 1.84 µM.

And the “Anti-SARS-CoV-2 screening on Calu-3 cells: intracellular SARS-CoV-2 infection measured via immunofluorescence imaging [% of control]” value (SARS-CoV-2 [4]; [12])?
Its value is 116.90 % of control.

And the viability at 5 µM (in vitro [10])?
The viability at 5 µM was 181%.

And the viability at 48 h, 5 µM (in vitro [9])?
Its viability at 48 h, 5 µM is 110%.

What about the “CC50 (µM)” value (Huh-7.5/F-Luc cells; [16]) of the same compound?
The value was “greater than maximum tested dose”.

With `COc1cc(Nc2ncc(F)c(Nc3ccc4c(n3)N(COP(=O)(O)O)C(=O)C(C)(C)O4)n2)cc(OC)c1OC` [RFM-004-140-7] as the compound, how does the IC50 (HCoV-229E [2]; Human coronavirus 229E) read?
Its IC50 is 4.09 µM.

What about the “Anti-SARS-CoV-2 screening on Calu-3 cells: intracellular SARS-CoV-2 infection measured via immunofluorescence imaging [% of control]” value (SARS-CoV-2 [4]; [12]) of the same compound?
The value was 134.69 % of control.

What about the viability at 5 µM (in vitro [10]) of the same compound?
Its viability at 5 µM is 93.7%.

And the viability at 48 h, 5 µM (in vitro [9])?
The viability at 48 h, 5 µM was 86.2%.

And the “CC50 (µM)” value (Huh-7.5/F-Luc cells; [16])?
The value was “greater than maximum tested dose”.

With `CNc1cc(OC)c(C(=O)N[C@@H]2CCN(Cc3ccccc3)[C@@H]2C)cc1Cl` [RFM-000-360-1] as the compound, how does the IC50 (HCoV-229E [2]; Human coronavirus 229E) read?
Its IC50 is 2.36 µM.

And the “Anti-SARS-CoV-2 screening on Calu-3 cells: intracellular SARS-CoV-2 infection measured via immunofluorescence imaging [% of control]” value (SARS-CoV-2 [4]; [12])?
The value was 103.45 % of control.

What about the viability at 5 µM (in vitro [10]) of the same compound?
Its viability at 5 µM is 134%.

And the viability (in vitro [9])?
Its viability is 109%.

And the “CC50 (µM)” value (Huh-7.5/F-Luc cells; [16])?
The value was “greater than maximum tested dose”.

Which results are given for `CC(=O)[C@]1(O)Cc2c(O)c3c(c(O)c2[C@@H](O[C@H]2C[C@H](N)[C@H](O)[C@H](C)O2)C1)C(=O)c1ccccc1C3=O` [RFM-000-458-0]?
IC50 (HCoV-229E [2]; Human coronavirus 229E): 1.55 µM; Anti-SARS-CoV-2 screening on Calu-3 cells: intracellular SARS-CoV-2 infection measured via immunofluorescence imaging [% of control] (SARS-CoV-2 [4]): 139.58 % of control; viability at 5 µM (in vitro [10]): 103%; viability at 48 h, 5 µM (in vitro [9]): 15%; CC50 (µM) (Huh-7.5/F-Luc cells): greater than maximum tested dose

Which IC50 (HCoV-229E [2]; Human coronavirus 229E) does the source give for `COc1cccc(CCc2ccccc2OCC[C@@H]2C[C@@H](O)CN2C)c1` [RFM-011-187-5] here?
The IC50 was 2.43 µM.

And the “Anti-SARS-CoV-2 screening on Calu-3 cells: intracellular SARS-CoV-2 infection measured via immunofluorescence imaging [% of control]” value (SARS-CoV-2 [4]; [12])?
The value was 105.26 % of control.

And the viability at 5 µM (in vitro [10])?
Its viability at 5 µM is 131%.

And the viability (in vitro [9]; [15])?
Its viability is 102%.

What about the “CC50 (µM)” value (Huh-7.5/F-Luc cells; [16]) of the same compound?
The value was “greater than maximum tested dose”.

What does the source list for `CCN1[C@@H]2CC[C@H]1C[C@@H](OC(c1ccccc1)c1ccccc1)C2` [RFM-011-925-5]?
IC50 (HCoV-229E [2]; Human coronavirus 229E): 1.62 µM; Anti-SARS-CoV-2 screening on Calu-3 cells: intracellular SARS-CoV-2 infection measured via immunofluorescence imaging [% of control] (SARS-CoV-2 [4]; [12]): 108.20 % of control; viability at 5 µM (in vitro [10]): 136%; viability (in vitro [9]; [15]): 117%; CC50 (µM) (Huh-7.5/F-Luc cells; [16]): greater than maximum tested dose

Which results are given for `CN[C@@H](CC(C)C)C(=O)NCCCC(c1ccc(F)cc1)c1ccc(F)cc1` [RFM-010-013-0]?
IC50 (HCoV-229E [2]; Human coronavirus 229E): 2.77 µM; Anti-SARS-CoV-2 screening on Calu-3 cells: intracellular SARS-CoV-2 infection measured via immunofluorescence imaging [% of control] (SARS-CoV-2 [4]; [12]): 111.66 % of control; viability at 5 µM (in vitro [10]): 136%; viability (in vitro [9]; [15]): 99.2%; CC50 (µM) (Huh-7.5/F-Luc cells; [16]): greater than maximum tested dose
